Experimental data published in patent publication US12415989B2, “Cell culture platform for single cell sorting and enhanced reprogramming of iPSCs” (Fate Therapeutics, Inc., priority 2010, dated 2025).
“Also recorded” adds a separate entry of the source.

Tests used:
[1] = tested on: human pluripotent stem cells; assay: Small molecule cocktails in single cell culture of human pluripotent stem cells on feeder free substratum; type: cell-based; conditions: in combination with MEKi/TFGβi/GSKi
Protocol: FIGS. 1A-1E. The effects of various small molecule cocktails on single cell culture of human pluripotent stem cells on feeder free substratum. FIG. 1A. Different morphologies were evident when single cell dissociated human pluripotent stem cells were treated with various combinations of small molecules in a feeder free environment. Medium containing a combination of ROCKi/MEKi/TGFβi/GSKi delivered robust growth and viability of human pluripotent stem cells. FIG. 1B. While some small molecules supported maintenance of pluripotent stem cells, i.e., MEKi/TGFβi/GSKi, and others facilitated single cell dissociation of pluripotent stem cells, i.e., Rocki, the unique combination of these small molecules, i.e., ROCKi/MEKi/TGFβi/GSKi, supported single cell dissociation while maintaining undifferentiated status as indicated by highly proliferative colonies that were positive for pluripotent marker Tra181. Tra181, red; DAPI, blue. FIG. 1C. The combination of MEKi/TFGβi/GSKi/ROCKi supported viability and proliferation when hiPSCs were seeded at 1×10^5 cells on Matrigel and scored 4 days later for number of viable cells and percent viability as measured by trypan blue. FIG. 1D. […] FIG. 1E. […]

[2] = tested on: human fibroblasts; assay: Reprogramming of fibroblasts to iPSCs: kinetics and efficiency of colony formation; type: cell-based; conditions: additive used in the culture system for 3 days
Protocol: To initiate the reprogramming process, ectopic expression of reprogramming factors (in variable combinations of human Oct4, Sox2, Klf4, c-Myc, Lin28, and Nanog) was achieved using lentiviral transduction or other methods such as protein only treatment. In most cases, the starting cells were plated at 10% confluency (i.e., 1×10^5 cells per well of a 6-well plate) on a gelatin (Mediatech) coated surface. For the method of viral infection, freshly collected lentivirus was added to the starting cells at a dilution of 1:2, supplemented with 4 μg/mL polybrene (Millipore), and spin-infected at 650 g at 32° C. for 1.5 hrs. The culture was transferred to 37° C. and 5% CO2 for an additional 7 hrs. After the completion of the incubation, the cells were washed three times with PBS and fed with fresh medium. With difficult to infect cells, such as IMR90 fibroblasts in feeder-free culture systems, this process was repeated one more time, 48 hrs post the initial infection. For non-genetic methods of inducing reprogramming such as the use of direct protein application to the cells, protein mixtures, or cocktails, consisting of reprogramming factors at 8 μg/mL were added to cell solution and maintained for 24 hrs prior to medium change. This step was repeated for an additional two to four times. […]

| Compound | maintenance of cells in an undifferentiated state (SSEA4 and Tra181 surface expression) ([1]; compared with Y27632) | colony morphology ([1]; relative to Y27632) | post-sort seeding [2] |
| --- | --- | --- | --- |
| O=C(NCc1ccccc1)c1csc(Nc2ccncn2)n1 [Thiazovivin] | preferred over Y27632; also recorded: better supports the maintenance of cells in an undifferentiated state | more compact in morphology |  |
| fibronectin |  |  | improved post-sort seeding |
